The source of these data is ChEMBL document CHEMBL4017493, “Peptide Half-Life Extension: Divalent, Small-Molecule Albumin Interactions Direct the Systemic Properties of Glucagon-Like Peptide 1 (GLP-1) Analogues” (J Med Chem, 2017).

Active and inactive are the calls of the source. No cut-off for these calls is given here.

Data set [1] in a line: Induction of self aggregation in pH 7.4 PBS buffer assessed as retention volume by size exclusion chromatographic method. In general terms: In gel filtration, larger molecules generally elute earlier.
A short description of data set [2]: Induction of monodisperse self aggregation in pH 7.4 PBS buffer by dynamic light scattering method.
Data set [3] can be described thus: Induction of self aggregation in pH 7.4 PBS buffer assessed as supramolecular hydrodynamic radii at 1 mg/ml by dynamic light scattering method.
A short description of data set [4]: Half life in C57Bl/6 mouse plasma at 10 nmol/ml, sc. The format is ADME.
Another data set addresses Albumin (Homo sapiens, UniProt P02768). The data set is described as follows: Binding affinity to human serum albumin by SPR analysis. The format is ADME. To be noted: isolated protein. On the technique in general: Surface plasmon resonance follows binding to a sensor surface in real time, without labels.
For data set [5], the system named is Mus musculus. The data set is described as follows: Antiobesity activity in NMRI mouse assessed as reduction in cumulative food intake at 10 nmol/ml, sc measured up to 20 hrs. The format is functional, organism-based.
For data set [6], the system named is Mus musculus. The data set is described as follows: Antidiabetic activity in NMRI mouse assessed as blood glucose AUC (0 to 120 mins) at 10 nmol/ml, sc administered 45 mins prior to glucose challenge by OGTT (reference value: 1725 +/- 257 mmol/L). The format is functional, organism-based. The arrangement: dose 10 nmol/ml, time < 2 hr.
The nature of data set [7]: Tmax in C57Bl/6 mouse plasma at 10 nmol/ml, sc. The format is ADME.
Data set [8] relates to Mus musculus. The data set is described as follows: Antiobesity activity in NMRI mouse assessed as food intake at 10 nmol/ml, sc measured after 20 hrs (reference value: 3.51 +/- 0.49 g). The format is functional.
Data set [9] can be described thus: Half life in iv dosed human. The format is ADME, organism-based. To be noted: in vivo.
Data set [10] concerns Mus musculus. The data set is described as follows: Antiobesity activity in NMRI mouse assessed as reduction in acute food intake at 10 nmol/ml, sc measured up to 20 hrs. The format is functional, organism-based.

Sequence of Albumin (P02768 whole entry): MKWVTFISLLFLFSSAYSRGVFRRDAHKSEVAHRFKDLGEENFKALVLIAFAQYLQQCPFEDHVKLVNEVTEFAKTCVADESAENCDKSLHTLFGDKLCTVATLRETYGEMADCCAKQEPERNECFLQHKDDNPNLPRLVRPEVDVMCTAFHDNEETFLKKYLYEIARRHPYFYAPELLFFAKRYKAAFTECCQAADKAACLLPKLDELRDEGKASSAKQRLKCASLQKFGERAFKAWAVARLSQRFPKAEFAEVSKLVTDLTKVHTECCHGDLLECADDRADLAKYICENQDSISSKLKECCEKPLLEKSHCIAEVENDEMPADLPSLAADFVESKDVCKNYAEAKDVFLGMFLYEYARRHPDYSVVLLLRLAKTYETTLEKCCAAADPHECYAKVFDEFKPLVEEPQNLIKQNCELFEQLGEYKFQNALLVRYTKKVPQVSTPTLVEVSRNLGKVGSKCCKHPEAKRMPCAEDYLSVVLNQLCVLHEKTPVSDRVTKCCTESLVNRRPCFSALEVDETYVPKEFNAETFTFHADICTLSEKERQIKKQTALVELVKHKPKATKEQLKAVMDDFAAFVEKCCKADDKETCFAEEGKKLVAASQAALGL

Consider `CC[C@H](C)[C@H](NC(=O)[C@H](Cc1ccccc1)NC(=O)[C@H](CCC(=O)O)NC(=O)[C@H](CCCCNC(=O)COc1ccc(-c2ccccc2)cc1C(=O)O)NC(=O)[C@H](C)NC(=O)[C@H](C)NC(=O)[C@H](CCC(N)=O)NC(=O)CNC(=O)[C@H](CCC(=O)O)NC(=O)[C@H](CC(C)C)NC(=O)[C@H](Cc1ccc(O)cc1)NC(=O)[C@H](CO)NC(=O)[C@H](CO)NC(=O)[C@@H](NC(=O)[C@H](CC(=O)O)NC(=O)[C@H](CO)NC(=O)[C@@H](NC(=O)[C@H](Cc1ccccc1)NC(=O)[C@@H](NC(=O)CNC(=O)[C@H](CCC(=O)O)NC(=O)[C@H](C)NC(=O)[C@@H](N)Cc1cnc[nH]1)[C@@H](C)O)[C@@H](C)O)C(C)C)C(=O)N[C@@H](C)C(=O)N[C@@H](Cc1c[nH]c2ccccc12)C(=O)N[C@@H](CC(C)C)C(=O)N[C@H](C(=O)N[C@@H](CCCNC(=N)N)C(=O)NCC(=O)N[C@@H](CCCNC(=N)N)C(=O)NCC(=O)O)C(C)C`, for which the Vr in [1] lay within 9.8 to 16 mL.
A word on the half-life: it is the time in which the quantity being followed falls by half. One may read the Tmax as the time from dosing to the highest level. For the compound `CC[C@H](C)[C@H](NC(=O)[C@H](Cc1ccccc1)NC(=O)[C@H](CCC(=O)O)NC(=O)[C@H](CCCCNC(=O)[C@H](CCCNC(=O)COc1ccc(-c2ccc(F)cc2F)cc1C(=O)O)NC(=O)CC[C@H](NC(=O)Cc1c(C)n(C(=O)c2ccc(Cl)cc2)c2ccc(OC)cc12)C(=O)O)NC(=O)[C@H](C)NC(=O)[C@H](C)NC(=O)[C@H](CCC(N)=O)NC(=O)CNC(=O)[C@H](CCC(=O)O)NC(=O)[C@H](CC(C)C)NC(=O)[C@H](Cc1ccc(O)cc1)NC(=O)[C@H](CO)NC(=O)[C@H](CO)NC(=O)[C@@H](NC(=O)[C@H](CC(=O)O)NC(=O)[C@H](CO)NC(=O)[C@@H](NC(=O)[C@H](Cc1ccccc1)NC(=O)[C@@H](NC(=O)CNC(=O)[C@H](CCC(=O)O)NC(=O)[C@H](C)NC(=O)[C@@H](N)Cc1cnc[nH]1)[C@@H](C)O)[C@@H](C)O)C(C)C)C(=O)N[C@@H](C)C(=O)N[C@@H](Cc1c[nH]c2ccccc12)C(=O)N[C@@H](CC(C)C)C(=O)N[C@H](C(=O)N[C@@H](CCCNC(=N)N)C(=O)NCC(=O)N[C@@H](CCCNC(=N)N)C(=O)NCC(=O)O)C(C)C`, the result (in data set [2]; in the data set on Mus musculus [5]) was Active. Further, the Activity amounted to 21.6 nm in data set [3] and 1.62 g in the data set on Mus musculus [8]. The compound further showed a half-life in data set [4] of 299 min. Besides, at Albumin, the PB result is on record as “Dose-dependent effect”. In the data set with Mus musculus [6], the AUC worked out at 642 mmol·min/L. The Tmax in data set [7] came out at 240 min. The Vr in [1] stood at 6.6 mL.
Regarding `CC[C@H](C)[C@H](NC(=O)[C@H](Cc1ccccc1)NC(=O)[C@H](CCC(=O)O)NC(=O)[C@H](CCCCN)NC(=O)[C@H](C)NC(=O)[C@H](C)NC(=O)[C@H](CCC(N)=O)NC(=O)CNC(=O)[C@H](CCC(=O)O)NC(=O)[C@H](CC(C)C)NC(=O)[C@H](Cc1ccc(O)cc1)NC(=O)[C@H](CO)NC(=O)[C@H](CO)NC(=O)[C@@H](NC(=O)[C@H](CC(=O)O)NC(=O)[C@H](CO)NC(=O)[C@@H](NC(=O)[C@H](Cc1ccccc1)NC(=O)[C@@H](NC(=O)CNC(=O)[C@H](CCC(=O)O)NC(=O)[C@H](C)NC(=O)[C@@H](N)Cc1c[nH]cn1)[C@@H](C)O)[C@@H](C)O)C(C)C)C(=O)N[C@@H](C)C(=O)N[C@@H](Cc1c[nH]c2ccccc12)C(=O)N[C@@H](CC(C)C)C(=O)N[C@H](C(=O)N[C@@H](CCCNC(=N)N)C(=O)NCC(=O)N[C@@H](CCCNC(=N)N)C(=O)NCC(=O)O)C(C)C`, in data set [1], the Vr was found to be 14.1 mL.
Regarding `CC[C@H](C)[C@H](NC(=O)[C@H](Cc1ccccc1)NC(=O)[C@H](CCC(=O)O)NC(=O)[C@H](CCCCNC(=O)COCCOCCNC(=O)[C@H](CCCNC(=O)COc1ccc(-c2ccc(F)cc2F)cc1C(=O)O)NC(=O)CC[C@H](NC(=O)Cc1c(C)n(C(=O)c2ccc(Cl)cc2)c2ccc(OC)cc12)C(=O)O)NC(=O)[C@H](C)NC(=O)[C@H](C)NC(=O)[C@H](CCC(N)=O)NC(=O)CNC(=O)[C@H](CCC(=O)O)NC(=O)[C@H](CC(C)C)NC(=O)[C@H](Cc1ccc(O)cc1)NC(=O)[C@H](CO)NC(=O)[C@H](CO)NC(=O)[C@@H](NC(=O)[C@H](CC(=O)O)NC(=O)[C@H](CO)NC(=O)[C@@H](NC(=O)[C@H](Cc1ccccc1)NC(=O)[C@@H](NC(=O)CNC(=O)[C@H](CCC(=O)O)NC(=O)[C@H](C)NC(=O)[C@@H](N)Cc1cnc[nH]1)[C@@H](C)O)[C@@H](C)O)C(C)C)C(=O)N[C@@H](C)C(=O)N[C@@H](Cc1c[nH]c2ccccc12)C(=O)N[C@@H](CC(C)C)C(=O)N[C@H](C(=O)N[C@@H](CCCNC(=N)N)C(=O)NCC(=O)N[C@@H](CCCNC(=N)N)C(=O)NCC(=O)O)C(C)C`, the result in the data set with Mus musculus [5] was Active.
Compound `CC[C@H](C)[C@H](NC(=O)[C@H](Cc1ccccc1)NC(=O)[C@H](CCC(=O)O)NC(=O)[C@H](CCCCN)NC(=O)[C@H](C)NC(=O)[C@H](C)NC(=O)[C@H](CCC(N)=O)NC(=O)CNC(=O)[C@H](CCC(=O)O)NC(=O)[C@H](CC(C)C)NC(=O)[C@H](Cc1ccc(O)cc1)NC(=O)[C@H](CO)NC(=O)[C@H](CO)NC(=O)[C@@H](NC(=O)[C@H](CC(=O)O)NC(=O)[C@H](CO)NC(=O)[C@@H](NC(=O)[C@H](Cc1ccccc1)NC(=O)[C@@H](NC(=O)CNC(=O)[C@H](CCC(=O)O)NC(=O)[C@H](C)NC(=O)[C@H](Cc1cnc[nH]1)NC(=O)[C@H](CCCNC(=N)N)NC(=O)[C@H](CCC(=O)O)NC(=O)[C@H](Cc1ccccc1)NC(=O)[C@H](CCC(=O)O)NC(=O)[C@H](CC(=O)O)NC(=O)[C@@H](N)Cc1cnc[nH]1)[C@@H](C)O)[C@@H](C)O)C(C)C)C(=O)N[C@@H](C)C(=O)N[C@@H](Cc1c[nH]c2ccccc12)C(=O)N[C@@H](CC(C)C)C(=O)N[C@H](C(=O)N[C@@H](CCCCN)C(=O)NCC(=O)N[C@@H](CCCNC(=N)N)C(N)=O)C(C)C` displayed a half-life in [9] of less than 2 min.
In turn, `CC[C@H](C)[C@H](NC(=O)[C@H](Cc1ccccc1)NC(=O)[C@H](CCC(=O)O)NC(=O)[C@H](CCCCNC(=O)CC[C@H](NC(=O)Cc1c(C)n(C(=O)c2ccc(Cl)cc2)c2ccc(OC)cc12)C(=O)O)NC(=O)[C@H](C)NC(=O)[C@H](C)NC(=O)[C@H](CCC(N)=O)NC(=O)CNC(=O)[C@H](CCC(=O)O)NC(=O)[C@H](CC(C)C)NC(=O)[C@H](Cc1ccc(O)cc1)NC(=O)[C@H](CO)NC(=O)[C@H](CO)NC(=O)[C@@H](NC(=O)[C@H](CC(=O)O)NC(=O)[C@H](CO)NC(=O)[C@@H](NC(=O)[C@H](Cc1ccccc1)NC(=O)[C@@H](NC(=O)CNC(=O)[C@H](CCC(=O)O)NC(=O)[C@H](C)NC(=O)[C@@H](N)Cc1cnc[nH]1)[C@@H](C)O)[C@@H](C)O)C(C)C)C(=O)N[C@@H](C)C(=O)N[C@@H](Cc1c[nH]c2ccccc12)C(=O)N[C@@H](CC(C)C)C(=O)N[C@H](C(=O)N[C@@H](CCCNC(=N)N)C(=O)NCC(=O)N[C@@H](CCCNC(=N)N)C(=O)NCC(=O)O)C(C)C` came in with a half-life in [4] of 55 min. Moreover, on Albumin, the PB entry is given as “Dose-dependent effect”. For the same compound, the result in the data set with Mus musculus [5] and with Mus musculus [10] was inactive. For the same compound, the AUC with Mus musculus [6] was found to be 614 mmol·min/L. The Tmax in data set [7] was found to be 30 min. For the same compound, the Vr in [1] lay in the range of 6.8 to 16 mL.
Consider `CC[C@H](C)[C@H](NC(=O)[C@H](Cc1ccccc1)NC(=O)[C@H](CCC(=O)O)NC(=O)[C@H](CCCCNC(=O)COCCOCCNC(=O)COc1ccc(-c2ccc(F)cc2F)cc1C(=O)O)NC(=O)[C@H](C)NC(=O)[C@H](C)NC(=O)[C@H](CCC(N)=O)NC(=O)CNC(=O)[C@H](CCC(=O)O)NC(=O)[C@H](CC(C)C)NC(=O)[C@H](Cc1ccc(O)cc1)NC(=O)[C@H](CO)NC(=O)[C@H](CO)NC(=O)[C@@H](NC(=O)[C@H](CC(=O)O)NC(=O)[C@H](CO)NC(=O)[C@@H](NC(=O)[C@H](Cc1ccccc1)NC(=O)[C@@H](NC(=O)CNC(=O)[C@H](CCC(=O)O)NC(=O)[C@H](C)NC(=O)[C@@H](N)Cc1cnc[nH]1)[C@@H](C)O)[C@@H](C)O)C(C)C)C(=O)N[C@@H](C)C(=O)N[C@@H](Cc1c[nH]c2ccccc12)C(=O)N[C@@H](CC(C)C)C(=O)N[C@H](C(=O)N[C@@H](CCCNC(=N)N)C(=O)NCC(=O)N[C@@H](CCCNC(=N)N)C(=O)NCC(=O)O)C(C)C`, for which the outcome in the data set with Mus musculus [5] was inactive.
Turning to `CC[C@H](C)[C@H](NC(=O)[C@H](Cc1ccccc1)NC(=O)[C@H](CCC(=O)O)NC(=O)[C@H](CCCCNC(=O)COc1ccc(-c2ccc(F)cc2F)cc1C(=O)O)NC(=O)[C@H](C)NC(=O)[C@H](C)NC(=O)[C@H](CCC(N)=O)NC(=O)CNC(=O)[C@H](CCC(=O)O)NC(=O)[C@H](CC(C)C)NC(=O)[C@H](Cc1ccc(O)cc1)NC(=O)[C@H](CO)NC(=O)[C@H](CO)NC(=O)[C@@H](NC(=O)[C@H](CC(=O)O)NC(=O)[C@H](CO)NC(=O)[C@@H](NC(=O)[C@H](Cc1ccccc1)NC(=O)[C@@H](NC(=O)CNC(=O)[C@H](CCC(=O)O)NC(=O)[C@H](C)NC(=O)[C@@H](N)Cc1cnc[nH]1)[C@@H](C)O)[C@@H](C)O)C(C)C)C(=O)N[C@@H](C)C(=O)N[C@@H](Cc1c[nH]c2ccccc12)C(=O)N[C@@H](CC(C)C)C(=O)N[C@H](C(=O)N[C@@H](CCCNC(=N)N)C(=O)NCC(=O)N[C@@H](CCCNC(=N)N)C(=O)NCC(=O)O)C(C)C`, the PB result at Albumin is “Dose-dependent effect”. For the same compound, the outcome with Mus musculus [5] was inactive.
